According to patent publication EP2401611B1, “IMPROVED METHODS FOR IDENTIFICATION” (Cambridge Enterprise Limited, priority 2009, dated 2010):
Like-named read-outs stand apart in the source and are kept apart here.

Experiments:
Panc-2H4 = test: Human Panc-2H4 insulin suppression assay; format: cell-based; details: for Panc-2H4 insulin suppression assay ("classical" target) Max Effect (%): Table 4; for EC50: Table 4, 0.01nM to 1,000nM in DMSO vehicle, read-out: Panc-2H4 insulin suppression assay ("classical" target) ED50
Description: (§1) Two different assays for "classical" sstr2 functions were adopted: (1) cultured foetal rat pituitary cells secreted growth hormone which is inhibited by sstr2 agonists in a dose-dependent fashion and (2) selected glucose-sensitive sub-clones of the human Panc-1 cell line secrete insulin which is inhibited by sstr2 agonists in a dose-dependent fashion.
Glucose-sensitive sub-clones of the human Panc-1, a cell line derived from a pleiomorphic epithelioid carcinoma of the exocrine pancreas, were obtained essentially as described by Hamil et al. (2008) Biomed. Sci. Instrum. 44:441-6. Briefly, Panc-1 cells were subcultured in 24 well plates, and the medium was supplemented with an additional 5% glucose. […] The resulting sub-lines were then tested for glucose sensitivity by preparing wells of a 96-well plate (5 x 10^4 cells per well) which were then exposed to cultured medium containing a range of glucose concentrations (low glucose DMEM, DMEM, DMEM + 1% glucose, DMEM ± 2.5% glucose and DMEM + 5% glucose). After 24hrs incubation, the conditioned medium was collected and assayed for insulin secretion by ELISA (Linco; cat# EZHI-14K) in accordance with the manufacturer's instructions. […] Further 96 well plates were prepared using Panc-2H4 (5 x 10^4 cells per well) in DMEM. After 24hrs, the medium was switched to DMEM + 5% glucose containing various test agents at various concentrations (triplicate wells per condition). After a further 24hrs, the conditioned medium was harvested and the concentration of insulin was determined by ELISA as described above.
(§2) Results were reported as the mean ± SD, expressed as the fold change from cells in the presence of vehicle only.

THP-1 cells = test: MCP-1 induced THP-1 cell migration (Transwell) assay; format: cell-based, human; details: for Chemokine-induced THP-1 cell migration assay ("BSCI" target) Max Effect (%): Table 4; for RATIO: Table 4, THP-1 migration ED50 versus insulin suppression ED50
Experimental: Leukocyte migration was measured using the 96-well format micro Transwell^RTM assay system from Neuroprobe (Gaithersburg, MD, USA). In principle, this assay consists of two chambers separated by a porous membrane. The chemoattractant is placed in the lower compartment and the cells are placed in the upper compartment. After incubation for a period at 37°C the cells move towards the chemoattractant, and the number of cells in the lower compartment is proportional to the chemoattractant activity (relative to a series of controls).
The method was performed essentially as previously described (Reckless & Grainger (1999) Biochem. J. 340:803-11).
First, the cell suspension to be placed in the upper compartment was prepared. The THP-1 cells were pelleted by centrifugation (770 x g; 4 mins) and washed with Geys Balanced Salt Solution with 1mg/ml BSA (GBSS + BSA). This wash was then repeated, and the cells re-pelleted before being resuspended in a small volume of GBSS + BSA for counting, for example using a standard haemocytometer.
The volume of GBSS + BSA was then adjusted depending on the number of cells present so that the cells were at final density of 4.45 x 10^6 cells per ml of GBSS + BSA. This ensured that there were 100,000 THP-1 cells in each 25µl of the solution to be placed in the upper chamber of the plate.
The suspension of THP-1 cells at 4.45 x 10^6 cells/ml was divided into three pots. To one pot the BSCI was added at an appropriate final concentration, in an appropriate vehicle (for example (S)- 3-(2',2'-dimethylpropanoylamino)-tetrahydropyridin-2-one was added at 1nM from a stock solution in GBSS). To the second pot, the BSCI was added at the same concentration as in the first pot, but additionally the sstr2 antagonist was also added (for example BIM 23454 [Tulipano et al. (2002) 143:1218-24] or BIM 23627 were added at 66nM final concentration from a stock solution in GBSS). To the third pot, GBSS + BSA plus vehicle as appropriate was added so that the volumes in three pots are equal, acting as a control.
Next, the chemoattractant solution to be placed in the lower compartment was prepared. […]. Note that, as recommended by Frow et al (Med. Res. Rev. 24:276-98) this is the concentration of MCP-1 which induces maximal migration in this system. This solution was divided into three pots, as for the cell suspension. To one pot, the BSCI was added to the same final concentration as was added to the cell suspension, in the second pot the BSCI and the sstr2 antagonist were both added at the same concentration as previously added to the cell suspension, while to the remaining pot GBSS + BSA plus vehicle as appropriate was added so that the volumes in the three pots were equal. Note that the volume of liquid that needs to be added to make the addition of the BSCI and the sstr2 antagonist compounds needs to be taken into account, when establishing the final concentration of MCP-1 in the solution for the lower compartment and the final concentration of cells in the upper compartment.
Once the chemoattractant solutions for the lower wells and cell solutions for the upper chambers were prepared, the migration chamber was assembled. 29 µl of the appropriate chemoattractant solution was placed into the lower well of the chamber. Assays were performed with at least triplicate determinations of each condition. Once all the lower chambers were filled, the porous membrane was applied to the chamber in accordance with the manufacturer's instructions. Finally, 25 µl of the appropriate cell solution was applied to each upper chamber. A plastic lid was placed over the entire apparatus to prevent evaporation.
The assembled chamber was incubated at 37 °C, 5% CO2, for 2 hours. A suspension of cells in GBSS + BSA was also incubated under identical conditions in a tube: these cells were used to construct a standard curve for determining the number of cells that migrated to the lower chamber under each condition. […]

sstr2 = sstr2 (Homo sapiens, UniProt P30874); test: [3H]-BN83250 equilibrium binding to THP-1 cells
sstr2, sequence (P30874 whole entry): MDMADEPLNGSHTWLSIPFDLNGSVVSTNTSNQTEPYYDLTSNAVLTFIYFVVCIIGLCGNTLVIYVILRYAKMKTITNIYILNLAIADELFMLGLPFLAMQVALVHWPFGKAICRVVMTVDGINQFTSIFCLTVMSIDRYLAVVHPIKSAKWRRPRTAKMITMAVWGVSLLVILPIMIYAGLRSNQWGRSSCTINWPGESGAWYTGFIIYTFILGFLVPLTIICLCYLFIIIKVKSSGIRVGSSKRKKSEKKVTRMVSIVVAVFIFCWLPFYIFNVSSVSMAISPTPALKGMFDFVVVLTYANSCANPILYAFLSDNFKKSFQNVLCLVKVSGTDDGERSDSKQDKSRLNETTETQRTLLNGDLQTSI
Experimental: We have investigated the molecular interaction between BSCIs and the sstr2 receptor using conventional equilibrium binding studies employing labelled BSCI ligands.
For the analysis of binding, individual reactions were set up (in triplicate for each condition), with 1x10^6 THP-1 cells in Gey's Balanced Salt Solution, 10nM [^3H]-BN83250 (at 50 Ci/mmol) and various concentrations of (S)-3(2'2'-dimethylpropionoylamino)-tetrahydropyridin-2-one (10pM to 10µM). Excess (100µM) unlabelled BN83250 was used to determine the level of non-specific binding. After 2 hours at 4°C (conditions previously shown to achieve equilibrium binding, and which prevent uptake of the radioligand that would result in an over-estimate of binding) excess label was washed away by centrifugation (3 washes with 5ml of Gey's Balanced Salt Solution) and the bound radioactivity was determined by scintillation counting of the solubilised cell pellet.

fetal rat pituicytes = test: Rat pituicyte GH suppression assay; format: cell-based; details: Rattus norvegicus
Description: as §1
Methods: Cultures of fetal rat pituicytes were established exactly as previously described (Murray et al. (2004) J. Clin. Endocrinol. Metab. 89:3027-32) by enzymatic dispersion. After 48hrs in low glucose DMEM plus 10% FCS, cells in 48 well plates (5 x 10^4 cells per well) were washed for 4hrs in serum-free DMEM and then incubated with test agents at various concentrations for a further 24hrs in serum-free DMEM. At the end of this period, the conditioned medium was harvested, any cell debris removed by centrifugation and assayed for GH using a commercially available ELISA (Linco; cat# EZRMGH-45K) in accordance with the manufacturer's instructions.
as §2

[1] = test system: rat peripheral blood leukocytes; test: Rat chemokine-induced PBMC migration assay; format: cell-based
[2] = Table 4, 0.01nM to 1,000nM in DMSO vehicle, read-out: Chemokine-induced THP-1 cell migration assay ("BSCI" target) ED50

| SMILES | EC50 (Panc-2H4) | EC50 (THP-1 cells; [2]) | Panc-2H4 insulin suppression assay ("classical" target) Max Effect (%) (Panc-2H4) | Chemokine-induced THP-1 cell migration assay ("BSCI" target) Max Effect (%) (THP-1 cells) | competition with BN83250 binding to sstr2 (in words) (sstr2) | RATIO (THP-1 cells) | further results |
| --- | --- | --- | --- | --- | --- | --- | --- |
| CC1(C(=O)N[C@H]2CCCCNC2=O)CCCCC1 [(S)-3-(1'-methylcyclohexyl-1'-carbonylamino)-caprolactam] | – | – | – | – | also compete with BN83250 binding to sstr2 to a similar extent | – | – |
| O=C1NCCCC[C@@H]1NC(=O)C12CC3CC(CC(C3)C1)C2 [BN83470, (S)-3-(admantane-1'-carbonylamino)-caprolactam] | – | – | – | – | also compete with BN83250 binding to sstr2 to a similar extent | – | Emax (Panc-2H4; Homo sapiens, Table 3, percentage suppression compared to vehicle, read-out: Human Panc-2H4 insulin suppression assay Max effect (%)): < 10%; Emax (fetal rat pituicytes; Table 3, percentage suppression compared to vehicle, read-out: Rat pituicyte GH suppression assay Max effect (%)): 56%; EC50 (fetal rat pituicytes; Table 3, read-out: Rat pituicyte GH suppression assay ED50): 270 nM; EC50 (THP-1 cells; Homo sapiens, THP-1, Table 3, read-out: Human chemokine-induced THP-1 migration assay ED50): 0.08 nM; Emax (THP-1 cells; Homo sapiens, THP-1, Table 3, read-out: Human chemokine-induced THP-1 migration assay Max effect (%)): 100%; "Classical" : "BSCI" potency ratio Human (THP-1 cells; Table 3, THP-1 migration ED50 versus Panc-2H4 insulin suppression ED50): <0.00008; EC50 ([1]; Rattus norvegicus, Leukocyte, Table 3, read-out: Rat chemokine-induced PBMC migration assay ED50): 0.22 nM; Emax ([1]; Rattus norvegicus, Leukocyte, Table 3, read-out: Rat chemokine-induced PBMC migration assay Max effect (%)): 100%; "Classical" : "BSCI" potency ratio Rat ([1]; Table 3, rat PBMC migration ED50 versus rat pituicyte GH suppression ED50): 0.0008 |
| CC(c1c[nH]c2ccccc12)C(NC(=O)N1CCC(NC(N)=O)CC1)C(=O)NCC1CCCC(CN)C1 (centres unmarked) [Compound A] | – | > 1000 nM | – | – | – | – | – |

More lines, main results first:

| EC50 (Panc-2H4) | EC50 (THP-1 cells; [2]) | SMILES | Panc-2H4 insulin suppression assay ("classical" target) Max Effect (%) (Panc-2H4) | Chemokine-induced THP-1 cell migration assay ("BSCI" target) Max Effect (%) (THP-1 cells) | competition with BN83250 binding to sstr2 (in words) (sstr2) | RATIO (THP-1 cells) | further results |
| --- | --- | --- | --- | --- | --- | --- | --- |
| 650 nM | > 1000 nM | CC(=O)NC(CC(N)=O)C(=O)NC(C(=O)NCC1CCCC(CN)C1)C(C)c1c[nH]c2ccccc12 (mixture of isomers) [D] | 37% | <10% | – | – | – |
| 167 nM | 220 nM | CC(c1c[nH]c2ccccc12)C(NC(=O)N1CC(=O)NC(=O)C1)C(=O)NCC1CCCC(CN)C1 (centres unmarked) [Compound B] | 52% | 100% | – | 1.3 | – |
| 82 nM | 2 nM | CC(c1c[nH]c2ccccc12)C(NC(=O)NC1CCCNC1=O)C(=O)NCC1CCCC(CN)C1 (centres unmarked) [Compound C] | 56% | 100% | – | 0.02 | – |
